pIC50: −log10 of the molar value.
Columns and labels:
[1] = biological target: human ADAMTS-5 (Homo sapiens (Human), UniProt Q9UNA0); details: read-out: hADAMTS-5 potency IC50
Experimental: Finally, the fluorescence is read on the Envision (Perkin Elmer) after an incubation of 90 min at 37° C.

[2] = biological target: human MMP13 (Homo sapiens (Human), UniProt P45452); details: read-out: hMMP-13 potency IC50
Experimental: Human MMP13 is preactivated by incubated the enzyme in the same buffer complemented with 1 mM freshly prepared p-Aminophenylmercuric acetate (AMPA) for 1 hour at 37° C.

[3] = biological target: rnADAMTS-5 (1-564-6H) (Rattus norvegicus, UniProt Q6TY19); details: read-out: Rat ADAMTS-5 potency IC50
[4] = biological target: human TACE (Homo sapiens (Human), UniProt P78536); details: read-out: TACE potency IC50
Sequence of human TACE (P78536 whole entry, looked up, change not shown): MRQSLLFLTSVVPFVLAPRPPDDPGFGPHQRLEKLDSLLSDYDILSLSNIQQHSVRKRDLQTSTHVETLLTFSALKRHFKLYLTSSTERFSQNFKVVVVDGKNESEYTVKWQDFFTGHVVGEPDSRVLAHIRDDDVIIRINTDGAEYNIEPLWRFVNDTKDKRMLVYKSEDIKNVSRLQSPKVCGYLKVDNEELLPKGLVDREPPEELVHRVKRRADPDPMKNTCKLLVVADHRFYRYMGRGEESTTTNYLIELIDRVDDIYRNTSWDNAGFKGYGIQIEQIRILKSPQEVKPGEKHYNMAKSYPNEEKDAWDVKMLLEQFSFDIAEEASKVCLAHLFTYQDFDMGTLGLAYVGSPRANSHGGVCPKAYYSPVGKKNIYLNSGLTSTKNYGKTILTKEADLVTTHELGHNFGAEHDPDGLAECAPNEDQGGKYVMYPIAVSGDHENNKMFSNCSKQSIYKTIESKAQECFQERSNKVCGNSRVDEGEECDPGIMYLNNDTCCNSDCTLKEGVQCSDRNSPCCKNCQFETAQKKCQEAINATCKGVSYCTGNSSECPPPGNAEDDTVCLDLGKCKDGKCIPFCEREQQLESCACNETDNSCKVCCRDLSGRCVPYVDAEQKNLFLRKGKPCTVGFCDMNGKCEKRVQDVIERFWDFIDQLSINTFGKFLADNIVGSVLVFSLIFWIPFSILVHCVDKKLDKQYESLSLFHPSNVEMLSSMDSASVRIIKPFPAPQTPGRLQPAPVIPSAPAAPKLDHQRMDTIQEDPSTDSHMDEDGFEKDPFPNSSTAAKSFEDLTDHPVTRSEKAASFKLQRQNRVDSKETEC

Sequence of human ADAMTS-5 (Q9UNA0 262-930): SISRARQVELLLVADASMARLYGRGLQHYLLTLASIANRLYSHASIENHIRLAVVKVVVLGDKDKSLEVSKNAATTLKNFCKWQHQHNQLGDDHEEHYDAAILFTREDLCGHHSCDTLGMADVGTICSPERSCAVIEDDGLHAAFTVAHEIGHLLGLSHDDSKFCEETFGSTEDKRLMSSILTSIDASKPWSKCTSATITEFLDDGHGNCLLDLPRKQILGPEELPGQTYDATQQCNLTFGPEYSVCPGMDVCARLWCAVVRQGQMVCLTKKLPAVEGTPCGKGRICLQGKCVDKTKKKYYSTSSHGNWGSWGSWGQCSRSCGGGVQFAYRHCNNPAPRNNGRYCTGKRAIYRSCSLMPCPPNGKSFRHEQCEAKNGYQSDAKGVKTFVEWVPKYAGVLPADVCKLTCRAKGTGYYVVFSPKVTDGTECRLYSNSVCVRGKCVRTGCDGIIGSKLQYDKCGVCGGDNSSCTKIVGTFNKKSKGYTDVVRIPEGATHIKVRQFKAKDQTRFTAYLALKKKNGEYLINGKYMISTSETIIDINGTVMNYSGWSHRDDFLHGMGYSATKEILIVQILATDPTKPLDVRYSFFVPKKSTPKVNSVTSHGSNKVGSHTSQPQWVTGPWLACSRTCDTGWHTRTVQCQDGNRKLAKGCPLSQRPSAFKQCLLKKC

| Compound | pIC50 [1] | pIC50 [2] | pIC50 [3] | pIC50 [4] |
| --- | --- | --- | --- | --- |
| O=C1NC(=O)C(CCC(=O)N2CCN(c3cc(Cl)cc(Cl)c3)CC2)(CNCc2ccccc2)N1 (centres unmarked) [Cpd 181, 5-[(benzylamino)methyl]-5-[3-[4-(3,5-dichlorophenyl)piperazin-1-yl]-3-oxo-propyl]imidazolidine-2,4-dione] | 7.01 | < 4.70 | 6.90 | 5.54 |
| COC(=O)CC1(CCC(=O)N2CCN(c3cc(Cl)cc(Cl)c3)CC2)NC(=O)NC1=O (centres unmarked) [Cpd 182, Methyl 2-[4-[3-[4-(3,5-dichlorophenyl)piperazin-1-yl]-3-oxo-propyl]-2,5-dioxo-imidazolidin-4-yl]acetate] | 6.98 | < 4.70 | 7.06 | < 5.40 |
| CC(C)(C)OC(=O)CC1(CCC(=O)N2CCN(c3cc(Cl)cc(Cl)c3)CC2)NC(=O)NC1=O (centres unmarked) [Cpd 188, tert-butyl 2-[4-[3-[4-(3,5-dichlorophenyl)piperazin-1-yl]-3-oxo-propyl]-2,5-dioxo-imidazolidin-4-yl]acetate] | 7.28 | 5.57 | 7.27 | < 5.40 |
| O=C(CC1(CCC(=O)N2CCN(c3cc(Cl)cc(Cl)c3)CC2)NC(=O)NC1=O)NCCO (centres unmarked) [Cpd 189, 2-[4-[3-[4-(3,5-dichlorophenyl)piperazin-1-yl]-3-oxo-propyl]-2,5-dioxo-imidazolidin-4-yl]-N-(2-hydroxyethyl)acetamide] | 6.59 | < 4.70 | 6.60 | < 5.40 |
| C[C@H]1CN(C(=O)CCC2(C3CC3)NC(=O)NC2=O)CCN1c1cccc(Cl)c1 (stereo partly drawn) [compound 152, 5-[3-[(3S)-4-(3-chlorophenyl)-3-methyl-piperazin-1-yl]-3-oxo-propyl]-5-cyclopropyl-imidazolidine-2,4-dione] |  | < 4.70 | 7.21 | < 4.70 |
| O=C1Cc2cc(C3(CCC(=O)N4CCN(c5cccc(Cl)c5)CC4)NC(=O)NC3=O)ccc2N1 (centres unmarked) [compound 153, 5-[3-[4-(3-chlorophenyl)piperazin-1-yl]-3-oxo-propyl]-5-(2-oxoindolin-5-yl)imidazolidine-2,4-dione] |  | < 5.40 | 6.94 | 5.64 |
| COCCN(C)CC1(CCC(=O)N2CCN(c3cccc(Cl)c3)CC2)NC(=O)NC1=O (centres unmarked) [compound 154, 5-[3-[4-(3-chlorophenyl)piperazin-1-yl]-3-oxo-propyl]-5-[[2-methoxyethyl(methyl)amino]methyl]imidazolidine-2,4-dione] |  | < 5.40 | 6.29 | < 4.70 |
| C[C@H]1CN(C(=O)CCC2(C)NC(=O)NC2=O)CCN1c1cc(F)cc(F)c1 (stereo partly drawn) [compound 156, 5-[3-[(3S)-4-(3,5-difluorophenyl)-3-methyl-piperazin-1-yl]-3-oxo-propyl]-5-methyl-imidazolidine-2,4-dione] |  | < 4.70 | 6.89 | < 4.70 |
| C[C@H]1CN(C(=O)CCC2(C)NC(=O)NC2=O)CCN1c1cccc(F)c1 (stereo partly drawn) [compound 157, 5-[3-[(3S)-4-(3-fluorophenyl)-3-methyl-piperazin-1-yl]-3-oxo-propyl]-5-methyl-imidazolidine-2,4-dione] |  | < 4.70 | 6.55 | < 4.70 |
| C[C@]1(CCC(=O)N2CCN(c3cc(Cl)cc(Cl)c3)CC2)NC(=O)NC1=O [compound 159, (5R)-5-[3-[4-(3,5-dichlorophenyl)piperazin-1-yl]-3-oxo-propyl]-5-methyl-imidazolidine-2,4-dione] |  | < 4.70 | 6.90 | 5.73 |
| C[C@H]1CN(C(=O)CCC2(C3CC3)NC(=O)NC2=O)CCN1c1cc(F)cc(F)c1 (stereo partly drawn) [compound 160, 5-cyclopropyl-5-[3-[(3S)-4-(3,5-difluorophenyl)-3-methyl-piperazin-1-yl]-3-oxo-propyl]imidazolidine-2,4-dione] |  | < 4.70 | 7.44 | < 4.70 |
| C[C@H]1CN(C(=O)CCC2(C3CC3)NC(=O)NC2=O)CCN1c1ccc(F)c(F)c1 (stereo partly drawn) [compound 161, 5-cyclopropyl-5-[3-[(3S)-4-(3,4-difluorophenyl)-3-methyl-piperazin-1-yl]-3-oxo-propyl]imidazolidine-2,4-dione] | 7.27 | < 4.70 | 7.43 | < 4.70 |
| C[C@H]1CN(C(=O)CCC2(C3CC3)NC(=O)NC2=O)CCN1c1ccc(Cl)c(F)c1 (stereo partly drawn) [compound 162, 5-[3-[(3S)-4-(4-chloro-3-fluoro-phenyl)-3-methyl-piperazin-1-yl]-3-oxo-propyl]-5-cyclopropyl-imidazolidine-2,4-dione] | 7.41 | < 5.40 | 7.35 | < 4.70 |
| C[C@H]1CN(C(=O)CCC2(C3CC3)NC(=O)NC2=O)CCN1c1ccc(F)c(Cl)c1 (stereo partly drawn) [compound 163, 5-[3-[(3S)-4-(3-chloro-4-fluoro-phenyl)-3-methyl-piperazin-1-yl]-3-oxo-propyl]-5-cyclopropyl-imidazolidine-2,4-dione] | 7.40 | < 4.70 | 7.35 | < 4.70 |
| C[C@H]1CN(C(=O)CCC2(C3CC3)NC(=O)NC2=O)CCN1c1ccc(Cl)c(Cl)c1 (stereo partly drawn) [compound 167, 5-cyclopropyl-5-[3-[(3S)-4-(3,4-dichlorophenyl)-3-methyl-piperazin-1-yl]-3-oxo-propyl]imidazolidine-2,4-dione] | 7.72 | < 5.40 | 8.00 | < 5.40 |
| C[C@H]1CN(C(=O)CCC2(C)NC(=O)NC2=O)CCN1c1ccc(Cl)c(Cl)c1 (stereo partly drawn) [compound 168, 5-[3-[(3S)-4-(3,4-dichlorophenyl)-3-methyl-piperazin-1-yl]-3-oxo-propyl]-5-methyl-imidazolidine-2,4-dione] | 7.12 | < 4.70 | 6.89 | < 4.70 |
| C[C@H]1CN(C(=O)CCC2(C3CC3)NC(=O)NC2=O)CCN1c1cc(F)cc(Cl)c1 (stereo partly drawn) [compound 169, 5-[3-[(3S)-4-(3-chloro-5-fluoro-phenyl)-3-methyl-piperazin-1-yl]-3-oxo-propyl]-5-cyclopropyl-imidazolidine-2,4-dione] | 7.52 | < 4.70 | 7.57 | < 4.70 |
| C[C@H]1CN(C(=O)CCC2(C)NC(=O)NC2=O)CCN1c1cc(F)cc(Cl)c1 (stereo partly drawn) [compound 170, 5-[3-[(3S)-4-(3-chloro-5-fluoro-phenyl)-3-methyl-piperazin-1-yl]-3-oxo-propyl]-5-methyl-imidazolidine-2,4-dione] | 6.77 | < 4.70 | 6.61 |  |
| CC(CC1(C2CC2)NC(=O)NC1=O)C(=O)N1CCN(c2cc(Cl)cc(Cl)c2)CC1 (centres unmarked) [compound 172, 5-cyclopropyl-5-[3-[4-(3,5-dichlorophenyl)piperazin-1-yl]-2-methyl-3-oxo-propyl]imidazolidine-2,4-dione] | 7.77 | 5.56 | 7.96 | 6.51 |
| Cc1ccc(F)cc1N1CCN(C(=O)C(C)CC2(C3CC3)NC(=O)NC2=O)CC1 (centres unmarked) [compound 174, 5-cyclopropyl-5-[3-[4-(5-fluoro-2-methyl-phenyl)piperazin-1-yl]-2-methyl-3-oxo-propyl]imidazolidine-2,4-dione] | 7.68 | < 4.70 | 7.77 | 6.49 |
| Cc1ccc(F)cc1N1CCN(C(=O)C(C)CC2(C)NC(=O)NC2=O)CC1 (centres unmarked) [compound 175, 5-[3-[4-(5-fluoro-2-methyl-phenyl)piperazin-1-yl]-2-methyl-3-oxo-propyl]-5-methyl-imidazolidine-2,4-dione] | 7.60 | < 4.70 | 7.66 | 6.60 |
| Cc1c(Cl)cccc1N1CCN(C(=O)C(C)CC2(C3CC3)NC(=O)NC2=O)CC1 (centres unmarked) [compound 176, 5-[3-[4-(3-chloro-2-methyl-phenyl)piperazin-1-yl]-2-methyl-3-oxo-propyl]-5-cyclopropyl-imidazolidine-2,4-dione] | 7.80 | < 4.70 | 8.15 | 5.91 |
| Cc1c(Cl)cc(Cl)cc1N1CCN(C(=O)CCC2(C3CC3)NC(=O)NC2=O)C[C@@H]1C (stereo partly drawn) [compound 177, 5-cyclopropyl-5-[3-[(3S)-4-(3,5-dichloro-2-methyl-phenyl)-3-methyl-piperazin-1-yl]-3-oxo-propyl]imidazolidine-2,4-dione] | 7.11 | < 4.70 | 7.40 | 5.70 |
| NCC1(CCC(=O)N2CCN(c3cc(Cl)cc(Cl)c3)CC2)NC(=O)NC1=O (centres unmarked) [compound 180, 5-(aminomethyl)-5-[3-[4-(3,5-dichlorophenyl)piperazin-1-yl]-3-oxo-propyl]imidazolidine-2,4-dione] | 6.75 | < 4.70 | 6.62 | < 5.40 |
| COCCNC(=O)CC1(CCC(=O)N2CCN(c3cc(Cl)cc(Cl)c3)CC2)NC(=O)NC1=O (centres unmarked) [compound 187, 2-[4-[3-[4-(3,5-dichlorophenyl)piperazin-1-yl]-3-oxo-propyl]-2,5-dioxo-imidazolidin-4-yl]-N-(2-methoxyethyl)acetamide] | 6.34 | 5.58 | 6.40 | < 4.70 |
| CC(CC1NC(=O)NC1=O)C(=O)N1CCN(c2cc(Cl)cc(Cl)c2)CC1 (centres unmarked) [compound 200, 5-[3-[4-(3,5-dichlorophenyl)piperazin-1-yl]-2-methyl-3-oxo-propyl]imidazolidine-2,4-dione] | 6.96 | < 4.70 | 6.87 |  |
| CC(CC1NC(=O)NC1=O)C(=O)N1CCN(c2cc(Cl)cc(Cl)c2)CC1 (centres unmarked) [compound 219, 5-[3-[4-(3,5-dichlorophenyl)piperazin-1-yl]-2-methyl-3-oxo-propyl]imidazolidine-2,4-dione] | 7.39 | < 5.40 | 7.54 |  |

— patent publication US9926281B2 (priority 2014, dated 2018)
